Where two headings read alike, the source gives them in different places.

For data set [1], the target named is GLP-1R (Homo sapiens, UniProt P43220). As to the kind of experiment: GLP-1R activation: cAMP increase in CHO cells stably expressing GLP-1R. It is filed as cell-based.
Data set [2] can be described thus: Microsomal stability, human liver microsomes (predicted hepatic clearance). Particulars: predicted from in vitro microsomal stability data.
[3] abbreviates: cAMP increase, CHO cells stably expressing GLP-1R, 10 point dose response, 30 minutes incubation, read-out: EC50.

Chain of GLP-1R (P43220 24-463): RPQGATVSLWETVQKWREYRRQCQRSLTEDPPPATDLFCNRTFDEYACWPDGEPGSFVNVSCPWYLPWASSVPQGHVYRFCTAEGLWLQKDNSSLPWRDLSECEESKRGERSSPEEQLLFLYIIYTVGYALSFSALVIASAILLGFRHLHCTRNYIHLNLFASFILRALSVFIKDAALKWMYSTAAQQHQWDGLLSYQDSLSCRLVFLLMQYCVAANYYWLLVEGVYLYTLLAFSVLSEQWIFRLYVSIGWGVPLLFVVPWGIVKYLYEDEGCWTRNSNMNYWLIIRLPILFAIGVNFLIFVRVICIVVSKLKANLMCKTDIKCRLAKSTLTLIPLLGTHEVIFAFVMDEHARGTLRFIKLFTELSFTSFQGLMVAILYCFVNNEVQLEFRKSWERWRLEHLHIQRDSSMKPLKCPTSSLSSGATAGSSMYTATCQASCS

In general, EC50 refers to the concentration at which the effect is half-maximal. Regarding `N#Cc1ccc(COc2cccc(-c3ccc(Cc4nc5ccc(C(=O)O)cc5n4C4CC4)c(F)c3)n2)c(F)c1` [Example 356, 2-(4-(6-((4-cyano-2-fluorobenzyl)oxy)pyridin-2-yl)-2-fluorobenzyl)-1-cyclopropyl-1H-benzo[d]imidazole-6-carboxylic acid], the EC50 in data set [1] (setting [3]) stood at 48.7 nM. For the same compound, the “Predicted Hepatic Clearance (Pred. Cl.)” value in data set [2] was 7.17 mL/min/kg.

For `COCCn1c(Cc2ccc(-c3ccc(F)c(OCc4ccc(Cl)cc4F)c3)cc2F)nc2ccc(C(=O)O)cc21` [Example 472, 2-((3′-((4-chloro-2-fluorobenzyl)oxy)-3,4′-difluoro-[1,1′-biphenyl]-4-yl)methyl)-1-(2-methoxyethyl)-1H-benzo[d]imidazole-6-carboxylic acid], in data set [1] (setting [3]), the EC50 was determined as 20.9 nM. For the same compound, the “Predicted Hepatic Clearance (Pred. Cl.)” value in data set [2] was less than 1.83 mL/min/kg.

As for `N#Cc1ccc(COc2cccc(-c3ccn(Cc4nc5ccc(C(=O)O)cc5n4CC4(CF)CC4)c(=O)c3)n2)c(F)c1` [Example 424, 2-((6-((4-cyano-2-fluorobenzyl)oxy)-2′-oxo-[2,4′-bipyridin]-1′(2′H)-yl)methyl)-1-((1-(fluoromethyl)cyclopropyl)methyl)-1H-benzo[d]imidazole-6-carboxylic acid], the EC50 in data set [1] (setting [3]) amounted to 15.7 nM. For the same compound, the “Predicted Hepatic Clearance (Pred. Cl.)” value in data set [2] was 2.33 mL/min/kg.

On to `O=C(O)c1ccc2nc(Cc3cc(F)c(-c4nccc(OCc5ccc(C(F)(F)F)cc5F)n4)cc3F)n(C[C@@H]3CCO3)c2c1` [Example 754], for which, in data set [1] (setting [3]), the EC50 turned out to be 0.15 nM. The “Predicted Hepatic Clearance (Pred. Cl.)” value in data set [2] was 6 mL/min/kg.

`N#Cc1ccc(COc2cccc(-c3ccc(Cc4nc5ccc(C(=O)O)cc5n4CC4CCS4(=O)=O)c(F)c3)n2)c(F)c1` (single isomer, unassigned) [Example 69, 2-(4-(6-((4-cyano-2-fluorobenzyl)oxy)pyridin-2-yl)-2-fluorobenzyl)-1-((1,1-dioxidothietan-2-yl)methyl)-1H-benzo[d]imidazole-6-carboxylic acid]: the EC50 in data set [1] (setting [3]) came to 12 nM. Moreover, the “Predicted Hepatic Clearance (Pred. Cl.)” value in data set [2] was less than 1.83 mL/min/kg.

With `O=C(O)c1ccc2nc(Cc3cc(F)c(-c4cccc(OCc5ccc(Cl)nc5OC(F)F)n4)cc3F)n(C[C@@H]3CCO3)c2c1` [Example 759], the EC50 in data set [1] (setting [3]) turned out to be 0.64 nM. In addition, the “Predicted Hepatic Clearance (Pred. Cl.)” value in data set [2] is 1.83 mL/min/kg.

In the case of `COCCn1c(Cc2ccc(-c3cccc(OCc4ccc(C#N)cc4F)n3)c3ccccc23)nc2ccc(C(=O)O)cc21` [Example 35, 2-((4-(6-((4-cyano-2-fluorobenzyl)oxy)pyridin-2-yl)naphthalen-1-yl)methyl)-1-(2-methoxyethyl)-1H-benzo[d]imidazole-carboxylic acid], the 50% effective concentration (EC50) in data set [1] (setting [3]) is 1000 nM. Besides, the “Predicted Hepatic Clearance (Pred. Cl.)” value in data set [2] is 5.17 mL/min/kg.

As to `COCCn1c(Cc2c(F)cc(-c3cccnc3OCc3ccccc3)cc2F)nc2ccc(C(=O)O)cc21` [Example 186, 2-(4-(2-(benzyloxy)pyridin-3-yl)-2,6-difluorobenzyl)-1-(2-methoxyethyl)-1H-benzo[d]imidazole-carboxylic acid], in data set [1] (setting [3]), the EC50 came to 812 nM. Further, in data set [2], the “Predicted Hepatic Clearance (Pred. Cl.)” value is 11.5 mL/min/kg.

For `COCCn1c(Cc2cc(F)c(-c3cccc(OCc4cccc(-c5ccccn5)c4)n3)cc2F)nc2ccc(C(=O)O)cc21` [Example 908], the 50% effective concentration (EC50) in data set [1] (setting [3]) was 6.68 nM. In addition, the “Predicted Hepatic Clearance (Pred. Cl.)” value in data set [2] was 5.17 mL/min/kg.

As to `O=C(O)c1ccc2nc(Cc3ccc(-c4ccnc(OCc5ccc(C(F)F)cc5F)n4)c(F)c3)n(C[C@@H]3CCO3)c2c1` [Example 790], the EC50 in data set [1] (setting [3]) is 0.44 nM. In addition, in data set [2], the “Predicted Hepatic Clearance (Pred. Cl.)” value is 3 mL/min/kg.

On to `COCCn1c(Cc2cnc(-c3cccc(OCc4ccc(C#N)cc4F)n3)c(F)c2)nc2ccc(C(=O)O)cc21` [Example 855], for which, in data set [1] (setting [3]), the EC50 was determined as 12.6 nM. Also, the “Predicted Hepatic Clearance (Pred. Cl.)” value in data set [2] is 5.5 mL/min/kg.

Take `N#Cc1ccc(COc2nc(-c3cc(F)c(Cc4nc5ccc(C(=O)O)cc5n4C[C@@H]4CCO4)cc3F)ncc2F)c(F)c1` [Example 449, (S)-2-(4-(4-((4-cyano-2-fluorobenzyl)oxy)-5-fluoropyrimidin-2-yl)-2,5-difluorobenzyl)-1-(oxetan-2-ylmethyl)-1H-benzo[d]imidazole-6-carboxylic acid]: the concentration giving a half-maximal response (EC50) in data set [1] (setting [3]) amounted to 0.17 nM. Also, the “Predicted Hepatic Clearance (Pred. Cl.)” value in data set [2] was 4.33 mL/min/kg.

For the compound `COCCn1c(Cc2cc(F)c(-c3ccnc(OCc4ccc(C#N)cc4OC)n3)cc2F)nc2ccc(C(=O)O)cc21` [Example 368, 2-(4-(2-((4-cyano-2-methoxybenzyl)oxy)pyrimidin-4-yl)-2,5-difluorobenzyl)-1-(2-methoxyethyl)-1H-benzo[d]imidazole-6-carboxylic acid], in data set [1] (setting [3]), the EC50 came to 0.77 nM. The “Predicted Hepatic Clearance (Pred. Cl.)” value in data set [2] was less than 1.83 mL/min/kg.

With `COC(Cn1c(Cc2ccc(-c3cccc(OCc4ccc(C#N)cc4F)n3)cc2F)nc2ccc(C(=O)O)cc21)C(=O)O` (single isomer, unassigned) [Example 332, 1-(2-carboxy-2-methoxyethyl)-2-(4-(6-((4-cyano-2-fluorobenzyl)oxy)pyridin-2-yl)-2-fluorobenzyl)-1H-benzo[d]imidazole-6-carboxylic acid], the EC50 in data set [1] (setting [3]) came out at 120 nM. Besides, the “Predicted Hepatic Clearance (Pred. Cl.)” value in data set [2] was less than 1.83 mL/min/kg.

For `N#Cc1ccc(COc2cccc(-c3ccc(Cc4nc5ccc(C(=O)O)cc5n4CC4CC4)c(F)c3)n2)c(F)c1` [Example 389, 2-(4-(6-((4-cyano-2-fluorobenzyl)oxy)pyridin-2-yl)-2-fluorobenzyl)-1-(cyclopropylmethyl)-1H-benzo[d]imidazole-6-carboxylic acid], the half-maximal effective concentration (EC50) in data set [1] (setting [3]) was 26.6 nM. In data set [2], the “Predicted Hepatic Clearance (Pred. Cl.)” value was less than 1.83 mL/min/kg.

Consider `CNC(=O)C(Cn1c(Cc2ccc(-c3cccc(OCc4ccc(C#N)cc4F)n3)cc2F)nc2ccc(C(=O)O)cc21)OC` (single isomer, unassigned) [Example 336, 2-(4-(6-((4-cyano-2-fluorobenzyl)oxy)pyridin-2-yl)-2-fluorobenzyl)-1-(2-methoxy-3-(methylamino)-3-oxopropyl)-1H-benzo[d]imidazole-6-carboxylic acid], for which the concentration giving a half-maximal response (EC50) in data set [1] (setting [3]) came out at 4.9 nM. For the same compound, the “Predicted Hepatic Clearance (Pred. Cl.)” value in data set [2] was 7 mL/min/kg.

With `COC[C@H](C)n1c(Cc2cc(F)c(-c3cccc(OCc4ccc(C#N)cc4F)n3)cc2F)nc2ccc(C(=O)O)cc21` [Example 559, (S)-2-(4-(6-((4-cyano-2-fluorobenzyl)oxy)pyridin-2-yl)-2,5-difluorobenzyl)-1-(1-methoxypropan-2-yl)-1H-benzo[d]imidazole-6-carboxylic acid], the EC50 in data set [1] (setting [3]) is 2.62 nM. Moreover, the “Predicted Hepatic Clearance (Pred. Cl.)” value in data set [2] was 6.83 mL/min/kg.

`N#Cc1ccc(COc2cccc(-c3ccc(Cc4nc5c(F)cc(C(=O)O)cc5n4CC4(C(F)F)CC4)c(F)c3)n2)c(F)c1` [Example 297, 2-(4-(6-((4-cyano-2-fluorobenzyl)oxy)pyridin-2-yl)-2-fluorobenzyl)-1-((1-(difluoromethyl)cyclopropyl)methyl)-4-fluoro-1H-benzo[d]imidazole-6-carboxylic acid]: in data set [1] (setting [3]), the 50% effective concentration (EC50) turned out to be 1.71 nM. For the same compound, the “Predicted Hepatic Clearance (Pred. Cl.)” value in data set [2] was 2.5 mL/min/kg.

In the case of `COCCn1c(Cc2ccc(-c3cccc(OCc4cccc(=O)n4C)n3)cc2F)nc2ccc(C(=O)O)cc21` [Example 373, 2-(2-fluoro-4-(6-((1-methyl-6-oxo-1,6-dihydropyridin-2-yl)methoxy)pyridin-2-yl)benzyl)-1-(2-methoxyethyl)-1H-benzo[d]imidazole-6-carboxylic acid], in data set [1] (setting [3]), the concentration for a half-maximal effect (EC50) was 4770 nM. Further, the “Predicted Hepatic Clearance (Pred. Cl.)” value in data set [2] is 19.5 mL/min/kg.

Consider `COCCn1c(Cc2cc(F)c(-c3nc(OCc4ccc(C#N)cc4F)ccc3F)cc2F)nc2ccc(C(=O)O)cc21` [Example 202, 2-(4-(6-((4-cyano-2-fluorobenzyl)oxy)-3-fluoropyridin-2-yl)-2,5-difluorobenzyl)-1-(2-methoxyethyl)-1H-benzo[d]imidazole-carboxylic acid], for which, in data set [1] (setting [3]), the concentration for a half-maximal effect (EC50) worked out at 3.34 nM. In data set [2], the “Predicted Hepatic Clearance (Pred. Cl.)” value is 5.25 mL/min/kg.

With `COCCn1c(Cc2ccc(-c3ccc(F)c(OCc4ccc(C#N)cc4F)n3)cc2F)nc2ccc(C(=O)O)cc21` [Example 87, 2-(4-(6-((4-cyano-2-fluorobenzyl)oxy)-5-fluoropyridin-2-yl)-2-fluorobenzyl)-1-(2-methoxyethyl)-1H-benzo[d]imidazole-6-carboxylic acid], the concentration giving a half-maximal response (EC50) in data set [1] (setting [3]) came to 5.66 nM. Besides, the “Predicted Hepatic Clearance (Pred. Cl.)” value in data set [2] is less than 1.83 mL/min/kg.

For `CC1(C)COC1Cn1c(Cc2ccc(-c3cccc(OCc4ccc(C#N)cc4F)n3)cc2F)nc2ccc(C(=O)O)cc21` (centres unmarked) [Example 264, 2-(4-(6-((4-cyano-2-fluorobenzyl)oxy)pyridin-2-yl)-2-fluorobenzyl)-1-((3,3-dimethyloxetan-2-yl)methyl)-1H-benzo[d]imidazole-6-carboxylic acid], the EC50 in data set [1] (setting [3]) amounted to 26.2 nM. In addition, in data set [2], the “Predicted Hepatic Clearance (Pred. Cl.)” value is 4 mL/min/kg.

Consider `COCCn1c(Cc2ccc(-c3cccc(Oc4cccc5ccccc45)n3)cc2F)nc2ccc(C(=O)O)cc21` [Example 98, 2-(2-fluoro-4-(6-(naphthalen-1-yloxy)pyridin-2-yl)benzyl)-1-(2-methoxyethyl)-1H-benzo[d]imidazole-6-carboxylic acid], for which the EC50 in data set [1] (setting [3]) came out at 913 nM. The “Predicted Hepatic Clearance (Pred. Cl.)” value in data set [2] is 7.33 mL/min/kg.

As to `COCCn1c(Cc2cc(F)c(-c3cccc(OCc4ccc(CC#N)cc4)n3)cc2F)nc2ccc(C(=O)O)cc21` [Example 817], in data set [1] (setting [3]), the half-maximal effective concentration (EC50) was found to be 10.3 nM. Moreover, the “Predicted Hepatic Clearance (Pred. Cl.)” value in data set [2] is 9 mL/min/kg.

For `COCCn1c(Cc2cc(F)c(-c3ccc(F)c(OCc4ccc(C#N)cc4F)n3)cc2F)nc2ccc(C(=O)O)cc21` [Example 217, 2-(4-(6-((4-cyano-2-fluorobenzyl)oxy)-5-fluoropyridin-2-yl)-2,5-difluorobenzyl)-1-(2-methoxyethyl)-1H-benzo[d]imidazole-carboxylic acid], the concentration giving a half-maximal response (EC50) in data set [1] (EC50 (nM)) was 1.72 nM. In data set [2], the “Predicted Hepatic Clearance (Pred. Cl.)” value was 2.75 mL/min/kg.

The values above are taken from patent US11702404B2, “GLP-1R modulating compounds” (priority 2019, dated 2023).
